Data set [1] can be described thus: PET biodistribution after intravenous administration. The data set is classed as in vivo, rats. The following applies: 1 µg/Kg. How it is done: Rats were anesthetized by inhalation of 5% isoflurane (IsoFlo®, Abbott Laboratories, Abbott Park, IL, USA) in pure O2 and maintained by 1.5–2% isoflurane in 100% O2. During imaging, rats were kept normothermic using a heating blanket (Homeothermic Blanket Control Unit; Bruker). For intravenous administration, once the animal was under anaesthesia, one of the lateral tail veins was catheterized with a 24-gauge catheter (Introcan Certo®, Bbraun) and [^11C]AHK2.1 or [^11C]AHK2.2 was injected using saline solution as the vehicle (n = 3 for each radiolabelled compound, 26 ± 5 MBq; dose adjusted to 1 µg/Kg) concomitantly with the start of a PET dynamic acquisition. Whole body dynamic images were acquired in 4 bed positions (21 frames: 5 × 5 s per bed, 5 × 30 s per bed, 5 × 60 s per bed, 6 × 120 s per bed; total acquisition time = 79.6 min) in the 400–700 keV energetic window using an eXploreVista-CT small animal PET-CT system (GE Healthcare, Waukesha, WI, USA). After each PET scan, CT acquisitions were also performed (140 µA intensity, 40 kV voltage) to provide anatomical information of each animal as well as the attenuation map for the later reconstruction of the PET images. […] After reconstruction, PET-CT images of the same animal were co-registered and analysed using PMOD image processing tool (PMOD Technologies Ltd., Zürich, Switzerland). […]

In data set [2] the target is T1, FKBP12 (Homo sapiens, UniProt P62942).
T1 construct: host or cells: HEK293
Nature of the data set: Competitive ligand binding assay (FKBP/FRB NanoBiT luminescence protein complementation) in HEK293 cells. The class given is cell-based. The following applies: rapamycin 30 nM. How it is done: Briefly, HEK293 (ATCC) cells were transfected with FKBP/FRB NanoBiT Control Pair (Promega, Madison, WI, USA) and kinetic measurements were performed 24 h after transfection with Nano-Glo Live Cell Reagent (Promega), as described by the manufacturer. A total of 30 nM rapamycin (Sigma-Aldrich, Madrid, Spain) and AHK2 (1 μM–10 mM) was sequentially added and each effect was recorded for 10 min. Specific activity was normalized to vehicle, and IC50 was calculated using GraphPad Prism by fitting the data to a four-parameter logistic curve.

Data set [3] can be described thus: Pharmacokinetics from metabolite-corrected arterial plasma TACs after intravenous administration. The class given is in vivo, Sprague Dawley Rats. How it is done:
(§1) Anaesthesia was induced with 5% isoflurane (IsoFlo®, Abbott Laboratories, Abbott Park, IL, USA) and maintained by 2% of isoflurane in 100% O2. During the experiment, rats were kept normothermic using a heating blanket (Homeothermic Blanket Control Unit; Bruker). The rat was positioned in supine position on an operating table and the two distal hind limbs were fixed forming an approximately 30° angle with the horizontal plane. The surgical region was scrubbed using Betadine, starting in the centre, and making a circular sweep outward. A skin incision was made in the femoral region. Soft tissue was dissected to expose the femoral neurovascular bundle, consisting of femoral vein, artery, and nerve. Fine tip forceps were placed between the artery, vein and nerve and were slowly opened to separate the vessels, exposing an approximately 1 cm length section of artery/vein. The vena profunda femoris was sutured to avoid retrograde bleeding via this vessel, and the sapheno-femoral junction was cauterized. A few millimetres from venatomy, a vascular clip was inserted in the direction of the catheter (to control the flow) and a suture was applied in the opposite direction (to avoid retrograde bleeding). The same operation was carried out both on the femoral vein and femoral artery. An appropriate syringe filled with 50 U/mL Heparin/physiologic saline solution was fixed at the terminus of the catheters and these were filled with heparinized saline solution. On the upper half of the vessel circumference, at a 45° angle, an incision was made and the catheter (fine bore polythene tubing: ID 0.58 mm, OD 0.98 mm) was inserted through the venotomy and advanced to the vascular clip. The vascular clip was then removed, and the catheter advanced distally towards the level of the inguinal ligament. The catheter was finally secured to the femoral vein/artery proximally and distally with 2 single knots using 4–0 braided silk suture. The catheters were connected to an in-house developed system composed by a peristaltic pump and gamma-radiation coincidence detector (Bioscan, B-FC-4100). The femoral artery catheter, the gamma detector, the peristaltic pump, and the femoral vein catheter were thus connected in series, to enable the extracorporeal circulation of blood (flow 150 μL/s from femoral artery to femoral vein) and continuous measurement of radioactivity in the blood (Figure 1).
(§2) The labelled compounds were administrated two different ways: (i) intravenous bolus infusion (ca. 37 MBq in 300 μL of saline solution was injected through the femoral vein catheter) and (ii) oral bolus administration. For oral administration, animals were fasted for 5 h. The radioactive dose (ca. 74 MBq in 300 μL of saline solution) was administered using flexible 20-gauge disposable flexible PTFE feeding needles (Fine Science Tools, F.S.T.) and a small animal Laryngoscope (Penn-Century, Model LS-2) for the correct visualization of the oesophagus. The study was conducted under no carrier added (NCA, dose adjusted to 1 μg/Kg) and carrier added (CA, dose adjusted to 5 mg/Kg) conditions. In all cases, data were imported in real time to an excel sheet using PLX-DAX add-on for Microsoft Excel (measured in volts per second).
(§3) Arterial blood samples (1 per animal) were withdrawn (see Figure 1) from the femoral artery catheter and introduced into a capillary (Microhaematocrit capillaries 75 × 1.55, Nahita). Samples were centrifuged at 11,000× g […] for 10 min and the haematocrit was determined. A second blood sample was withdrawn and the amount of radioactivity of a fixed volume (10 µL) was measured in an automatic gamma counter (2470 Wizard, PerkinElmer) to determine Cb (concentration of radioactivity in blood) and convert data imported with PLX-DAX (Volts per seconds) into Bq/s using a previously determined calibration curve. Values were then expressed as percentage of injected dose per gram of blood (% ID/g). […]

Data set [4] is described as follows: Pharmacokinetics from metabolite-corrected arterial plasma TACs after oral administration. The data set is classed as in vivo, Sprague Dawley Rats. How it is done:
as §1, §2, §3

T1 sequence (P62942 whole entry): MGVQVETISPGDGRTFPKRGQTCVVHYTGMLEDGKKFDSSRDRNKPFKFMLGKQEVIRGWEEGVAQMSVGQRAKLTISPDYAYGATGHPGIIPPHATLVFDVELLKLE

For `CN(C)CCn1cc(CSc2ccc(O[11CH3])cc2)nn1` [[^11C]AHK2.2], the “biodistribution of radioactivity in dynamic PET images” value in data set [1] was “rapid accumulation of radioactivity in the kidneys and elimination via urine”.
In the case of `CO[C@H]1C[C@@H]2CC[C@@H](C)[C@@](O)(O2)C(=O)C(=O)N2CCCC[C@H]2C(=O)O[C@H]([C@H](C)C[C@@H]2CC[C@@H](O)[C@H](OC)C2)CC(=O)[C@H](C)/C=C(\C)[C@@H](O)[C@@H](OC)C(=O)[C@H](C)C[C@H](C)/C=C/C=C/C=C/1C` [rapamycin, reference compound], the “induction of FKBP12/FRB dimerization (luminescence)” value in data set [2] is “induced”.
Consider `COc1ccc(SCc2cn(CCN(C)[11CH3])nn2)cc1` [[^11C]AHK2.1], for which, in data set [1], the “biodistribution of radioactivity in dynamic PET images” value was “accumulation in the gastrointestinal tract, the kidneys and the bladder”. The “Cp/Cb ratio (radioactivity in plasma / blood)” value in data set [3] (arterial blood, rat) worked out at 1.44 ± 0.2. For the same compound, the “percentage of radioactivity in plasma” value in data set [3] (from Cp/Cb and haematocrit 0.44 ± 0.04) is given as “ca. 81%”. Moreover, the “Hill function parameter d (initial level of parent fraction)” value in data set [3] (intravenous) and in data set [4] was 1 throughout. The “Hill function parameter a (plateau of parent fraction in plasma)” value in data set [3] (intravenous, 1 µg/Kg) is 0.075; in data set [3] (intravenous, 5 mg/Kg) it was 0.29; in data set [4] (1 µg/Kg), 0.10; in data set [4] (5 mg/Kg), 0.13.

The record behind these values is publication PMC9953224, “Pharmacokinetic Evaluation of New Drugs Using a Multi-Labelling Approach and PET Imaging: Application to a Drug Candidate with Potential Application in Neuromuscular Disorders” (Biomedicines, 2023).
